Results: ChEMBL document CHEMBL4665635, “Design and synthesis of various quinizarin derivatives as potential anticancer agents in acute T lymphoblastic leukemia” (Bioorg Med Chem, 2019)
Where a name gives a salt, the structure may show the parent alone. Values belong to the molecule of their own block, whether it stands above or below them. Activity calls are given as the source filed them. The calls are words filed in the database; no cut-off is given here.

Columns and labels:
K562 = test: Cytotoxicity against human K562 cells assessed as inhibition of cell proliferation after 48 hrs by MTT assay; format: functional, cell-based; settings: K562, 48 h
HL-60 = test: Cytotoxicity against human HL60 cells assessed as inhibition of cell proliferation after 48 hrs by MTT assay; format: functional, cell-based; settings: HL-60, 48 h
HEK293 [1] = test: Cytotoxicity against human HEK293 cells assessed as inhibition of cell proliferation after 48 hrs by MTT assay; format: cell-based; settings: HEK293, 48 h
[2] = Solubility in water by spectrophotometry; format: physicochemical
Jurkat [3] = test: Induction of apoptosis in human Jurkat cells assessed as Notch1 degradation at 2 to 4 uM after 24 hrs by Western blot analysis; format: functional, cell-based; settings: dose microM 2-4, time 24.0 hrs
NB-4 = test: Cytotoxicity against human NB4 cells assessed as inhibition of cell proliferation after 48 hrs by MTT assay; format: functional, cell-based; settings: NB-4, 48 h
CA46 = test: Cytotoxicity against human CA46 cells assessed as inhibition of cell proliferation after 48 hrs by MTT assay; format: functional, cell-based; settings: CA46, 48 h
NALM-6 = test: Cytotoxicity against human NALM6 cells assessed as inhibition of cell proliferation after 48 hrs by MTT assay; format: functional, cell-based; settings: NALM-6, 48 h
MOLT-4 [4] = test: Cytotoxicity against human MOLT4 cells assessed as inhibition of cell proliferation after 48 hrs by MTT assay; format: functional, cell-based; settings: MOLT-4, 48 h
Jurkat [5] = test: Cytotoxicity against human Jurkat cells assessed as inhibition of cell proliferation after 48 hrs by MTT assay; format: functional, cell-based
MOLT-4 [6] = test: Cell cycle arrest in human MOLT-4 cells assessed as increase in cell population at G0/G1 phase at 2 to 4 uM after 24 hrs by propidium iodide/RNase staining based flow cytometric analysis; format: functional; settings: dose microM 2-4, time 24.0 hrs
Jurkat [7] = test: Cell cycle arrest in human Jurkat cells assessed as increase in cell population at G0/G1 phase at 2 to 4 uM after 24 hrs by propidium iodide/RNase staining based flow cytometric analysis; format: functional; settings: dose microM 2-4, time 24.0 hrs
MOLT-4 [8] = test: Induction of apoptosis in human MOLT-4 cells assessed as Notch1 degradation at 2 to 4 uM after 24 hrs by Western blot analysis; format: functional, cell-based; settings: dose microM 2-4, time 24.0 hrs
MOLT-4 [9] = test: Cell cycle arrest in human MOLT-4 cells assessed as decrease in cell population at S phase at 2 to 4 uM after 24 hrs by propidium iodide/RNase staining based flow cytometric analysis; format: functional; settings: dose microM 2-4, time 24.0 hrs
Jurkat [10] = test: Cell cycle arrest in human Jurkat cells assessed as decrease in cell population at S phase at 2 to 4 uM after 24 hrs by propidium iodide/RNase staining based flow cytometric analysis; format: functional; settings: dose microM 2-4, time 24.0 hrs
MOLT-4 [11] = test: Induction of apoptosis in human MOLT-4 cells assessed as total apoptotic cells at 2 uM measured after 24 hrs by Annexin V-APC/7-AAD staining based flow cytometric analysis relative to control; format: functional
MOLT-4 [12] = test: Induction of apoptosis in human MOLT-4 cells assessed as total apoptotic cells at 4 uM measured after 24 hrs by Annexin V-APC/7-AAD staining based flow cytometric analysis relative to control; format: functional
Jurkat [13] = test: Induction of apoptosis in human Jurkat cells assessed as total apoptotic cells at 2 uM measured after 24 hrs by Annexin V-APC/7-AAD staining based flow cytometric analysis relative to control; format: functional
Jurkat [14] = test: Induction of apoptosis in human Jurkat cells assessed as total apoptotic cells at 4 uM measured after 24 hrs by Annexin V-APC/7-AAD staining based flow cytometric analysis relative to control; format: functional
HEK293 [15] = test: Induction of ROS generation in HEK293 cells at 1 uM incubated for 12 hrs by flow cytometric analysis relative to control; format: cell-based; settings: human, hek293, 12 h
HEK293 [16] = test: Induction of ROS generation in HEK293 cells at 2 uM incubated for 12 hrs by flow cytometric analysis relative to control; format: cell-based; settings: human, hek293, 12 h
MOLT-4 [17] = test: Induction of ROS generation in human MOLT-4 cells at 1 uM incubated for 12 hrs by flow cytometric analysis relative to control; format: functional
MOLT-4 [18] = test: Induction of ROS generation in human MOLT-4 cells at 2 uM incubated for 12 hrs by flow cytometric analysis relative to control; format: functional
Jurkat [19] = test: Induction of ROS generation in human Jurkat cells at 1 uM incubated for 12 hrs by flow cytometric analysis relative to control; format: functional
Jurkat [20] = test: Induction of ROS generation in human Jurkat cells at 2 uM incubated for 12 hrs by flow cytometric analysis relative to control; format: functional
MOLT-4 [21] = test: Induction of apoptosis in human MOLT-4 cells assessed as activation of PARP cleavage at 2 to 4 uM after 24 hrs by western blot analysis; format: functional, cell-based; settings: dose microM 2-4, time 24.0 hrs
MOLT-4 [22] = test: Induction of apoptosis in human MOLT-4 cells assessed as caspase 9 activation at 2 to 4 uM incubated for 24 hrs by Western blot analysis; format: functional, cell-based; settings: dose microM 2-4, time 24.0 hrs
Jurkat [23] = test: Induction of apoptosis in human Jurkat cells assessed as caspase 9 activation at 2 to 4 uM incubated for 24 hrs by Western blot analysis; format: functional, cell-based; settings: dose microM 2-4, time 24.0 hrs
MOLT-4 [24] = test: Induction of apoptosis in human MOLT-4 cells assessed as caspase 3 activation at 2 to 4 uM incubated for 24 hrs by Western blot analysis; format: functional, cell-based; settings: dose microM 2-4, time 24.0 hrs
Jurkat [25] = test: Induction of apoptosis in human Jurkat cells assessed as caspase 3 activation at 2 to 4 uM incubated for 24 hrs by Western blot analysis; format: functional, cell-based; settings: dose microM 2-4, time 24.0 hrs
Jurkat [26] = test: Induction of apoptosis in human Jurkat cells assessed as activation of PARP cleavage at 2 to 4 uM after 24 hrs by western blot analysis; format: functional, cell-based; settings: dose microM 2-4, time 24.0 hrs
MOLT-4 [27] = test: Induction of apoptosis in human MOLT-4 cells assessed as increase in cleaved caspase-3 levels at 4 uM after 24 hrs by Alexafluor-488 goat anti-rabbitIgG staining based flow cytometric analysis relative to control; format: functional
Jurkat [28] = test: Induction of apoptosis in human Jurkat cells assessed as increase in cleaved caspase-3 levels at 4 uM after 24 hrs by Alexafluor-488 goat anti-rabbitIgG staining based flow cytometric analysis relative to control; format: functional
MOLT-4 [29] = test: Induction of apoptosis in human MOLT-4 cells assessed as decrease in Bcl-2 protein expression at 2 to 4 uM after 24 hrs by Western blot analysis; format: functional, cell-based; settings: dose microM 2-4, time 24.0 hrs
Jurkat [30] = test: Induction of apoptosis in human Jurkat cells assessed as decrease in Bcl-2 protein expression at 2 to 4 uM after 24 hrs by Western blot analysis; format: functional, cell-based; settings: dose microM 2-4, time 24.0 hrs
MOLT-4 [31] = test: Induction of apoptosis in human MOLT-4 cells assessed as c-myc degradation at 2 to 4 uM after 24 hrs by Western blot analysis; format: functional, cell-based; settings: dose microM 2-4, time 24.0 hrs
Jurkat [32] = test: Induction of apoptosis in human Jurkat cells assessed as c-myc degradation at 2 to 4 uM after 24 hrs by Western blot analysis; format: functional, cell-based; settings: dose microM 2-4, time 24.0 hrs

solubility [2]: 28.2 mg/mL
Structure (SMILES): CCCCCCCC[N+](C)(CCCCCCCC)Cc1ccc(COc2ccc(OCc3ccc(C[N+](CCO)(CCO)CCO)cc3)c3c2C(=O)c2ccccc2C3=O)cc1.[Br-].[Br-]
IC50 (K562): 10.9 µM
IC50 (HL-60): 7.89 µM
IC50 (HEK293 [1]): 9.43 µM

Structure (SMILES): CCCCCCCC[N+](C)(CCCCCCCC)Cc1ccc(COc2ccc(OCc3ccc(C[N+](C)(CCCCCCCC)CCCCCCCC)cc3)c3c2C(=O)c2ccccc2C3=O)cc1
IC50 (K562): 6.78 µM
IC50 (HL-60): 3.49 µM
IC50 (HEK293 [1]): 2.99 µM

Structure (SMILES): O=C1c2ccccc2C(=O)c2c(OCc3ccc(CBr)cc3)ccc(OCc3ccc(CBr)cc3)c21
IC50 (K562): > 40 µM
IC50 (HL-60): > 40 µM
IC50 (HEK293 [1]): > 40 µM

Structure (SMILES): CCCCCCCC[N+](C)(CCCCCCCC)Cc1cc(O)c2c(c1)C(=O)c1cccc(O)c1C2=O
IC50 (K562): 2.78 µM
IC50 (HL-60): 1.11 µM
IC50 (HEK293 [1]): 2.2 µM

Structure (SMILES): CCCCCCCC[N+](C)(CCCCCCCC)Cc1cc(O)c2c(c1)Cc1cccc(O)c1C2=O
IC50 (K562): > 40 µM
IC50 (HL-60): > 40 µM
IC50 (HEK293 [1]): > 40 µM

Structure (SMILES): CCCCCCCC[P+](CCCCCCCC)(CCCCCCCC)Cc1ccc(COc2ccc(OCc3ccc(CSC(=N)N)cc3)c3c2C(=O)c2ccccc2C3=O)cc1
IC50 (K562): 8.04 µM
IC50 (HL-60): 5.16 µM
IC50 (HEK293 [1]): 6.66 µM

Structure (SMILES): COc1cccc2c1C(=O)c1c(O)c3c(c(O)c1C2=O)C[C@@](O)(C(=O)CO)C[C@@H]3O[C@H]1C[C@H](N)[C@H](O)[C@H](C)O1 [DOXORUBICIN HYDROCHLORIDE]
IC50 (K562): 0.63 µM
IC50 (HL-60): 0.14 µM
IC50 (HEK293 [1]): 0.37 µM

Structure (SMILES): CCCCCCCC[P+](CCCCCCCC)(CCCCCCCC)Cc1ccc(COc2ccc(OCc3ccc(CBr)cc3)c3c2C(=O)c2ccccc2C3=O)cc1
IC50 (K562): 1.24 µM
IC50 (HL-60): 0.9 µM
IC50 (HEK293 [1]): 2.17 µM

solubility [2]: 0.0593 mg/mL
Structure (SMILES): Br.Br.N=C(N)SCc1ccc(COc2ccc(OCc3ccc(CSC(=N)N)cc3)c3c2C(=O)c2ccccc2C3=O)cc1
IC50 (K562): 1.81 µM
IC50 (HL-60): 3.35 µM
IC50 (HEK293 [1]): 3.19 µM

Activity (HEK293 [15]): 2.78%
Activity (HEK293 [16]): 62.23%
solubility [2]: < 0.01 mg/mL
Structure (SMILES): CCCCCCCC[N+](C)(CCCCCCCC)Cc1ccc(COc2ccc(OCc3ccc(CBr)cc3)c3c2C(=O)c2ccccc2C3=O)cc1.[Br-]
Activity (Jurkat [3]): Dose-dependent effect
IC50 (K562): 2.31 µM
IC50 (HL-60): 1.4 µM
IC50 (HEK293 [1]): 2.44 µM
IC50 (NB-4): 2.4 µM
IC50 (CA46): 3.51 µM
IC50 (NALM-6): 1.24 µM
IC50 (MOLT-4 [4]): 2.61 µM
IC50 (Jurkat [5]): 2.8 µM
Activity (MOLT-4 [6]): Active
Activity (Jurkat [7]): Active
Activity (MOLT-4 [8]): Dose-dependent effect
Activity (MOLT-4 [9]): Active
Activity (Jurkat [10]): Active
Activity (MOLT-4 [11]): 22.76%
Activity (MOLT-4 [12]): 39.67%
Activity (Jurkat [13]): 25.57%
Activity (Jurkat [14]): 48.96%
Activity (MOLT-4 [17]): 22.2%
Activity (MOLT-4 [18]): 73.97%
Activity (Jurkat [19]): 18.63%
Activity (Jurkat [20]): 38.1%
Activity (MOLT-4 [21]): Active
Activity (MOLT-4 [22]): Active
Activity (Jurkat [23]): Active
Activity (MOLT-4 [24]): Active
Activity (Jurkat [25]): Active
Activity (Jurkat [26]): Active
Activity (MOLT-4 [27]): 33%
Activity (Jurkat [28]): 43.4%
Activity (MOLT-4 [29]): Dose-dependent effect
Activity (Jurkat [30]): Dose-dependent effect
Activity (MOLT-4 [31]): Dose-dependent effect
Activity (Jurkat [32]): Dose-dependent effect
